Assay results taken from patent US20210045385A1, “PYRIDAZINONE-SUBSTITUTED KETOXIMES AS HERBICIDES” (FMC Corporation, priority 2018, published 2021).

Assays:
Format in all cases: in vivo
[1] = system: barnyardgrass (Echinochloa crus-galli); experiment: Test A postemergence, visual plant response rating; settings: for Barnyardgrass plant response rating (0 to 100 scale): 500 g ai/ha, postemergence, 0 is no effect, 100 is complete control; for Barnyardgrass plant response rating: Postemergence, 125 g ai/ha, 0 to 100 scale (0 no effect, 100 complete control)
Outline: (§1)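 Ratings use a 0–100 visual scale (100 = complete control) against untreated controls, scored about 10 days after greenhouse treatment. Test chemicals were formulated in surfactant-containing non-phytotoxic solvent and applied either as soil spray after planting (preemergence) or onto one- to two-leaf, 2–10 cm plants (postemergence).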

[2] = system: blackgrass (Alopecurus myosuroides); experiment: Test A postemergence, visual plant response rating; settings: for Blackgrass plant response rating (0 to 100 scale): 500 g ai/ha, postemergence, 0 is no effect, 100 is complete control; for Blackgrass plant response rating: Postemergence, 125 g ai/ha, 0 to 100 scale (0 no effect, 100 complete control)
Outline: as §1

[3] = system: pigweed (Amaranthus retroflexus); experiment: Test A postemergence, visual plant response rating; settings: for Pigweed plant response rating (0 to 100 scale): 500 g ai/ha, postemergence, 0 is no effect, 100 is complete control; for Pigweed plant response rating: Postemergence, 125 g ai/ha, 0 to 100 scale (0 no effect, 100 complete control)
Outline: as §1

corn (Zea mays) = experiment: Test A postemergence, visual plant response rating; settings: for Corn plant response rating (0 to 100 scale): 500 g ai/ha, postemergence, 0 is no effect, 100 is complete control; for Corn plant response rating: Postemergence, 125 g ai/ha, 0 to 100 scale (0 no effect, 100 complete control)
Outline: as §1

[4] = system: foxtail, giant (giant foxtail, Setaria faberii); experiment: Test A postemergence, visual plant response rating; settings: for Foxtail, Giant plant response rating (0 to 100 scale): 500 g ai/ha, postemergence, 0 is no effect, 100 is complete control; for Foxtail, Giant plant response rating: Postemergence, 125 g ai/ha, 0 to 100 scale (0 no effect, 100 complete control)
Outline: as §1

[5] = system: ragweed (common ragweed, Ambrosia elatior); experiment: Test A postemergence, visual plant response rating; settings: for Ragweed plant response rating (0 to 100 scale): 500 g ai/ha, postemergence, 0 is no effect, 100 is complete control; for Ragweed plant response rating: Postemergence, 125 g ai/ha, 0 to 100 scale (0 no effect, 100 complete control)
Outline: as §1

kochia (Kochia scoparia) [6] = experiment: Test A postemergence, visual plant response rating; settings: for Kochia plant response rating (0 to 100 scale): 500 g ai/ha, postemergence, 0 is no effect, 100 is complete control; for Kochia plant response rating: Postemergence, 125 g ai/ha, 0 to 100 scale (0 no effect, 100 complete control)
Outline: as §1

[7] = system: Italian ryegrass (Lolium multiflorum); experiment: Test A postemergence, visual plant response rating; settings: for Ryegrass, Italian plant response rating (0 to 100 scale): 500 g ai/ha, postemergence, 0 is no effect, 100 is complete control; for Ryegrass, Italian plant response rating: Postemergence, 125 g ai/ha, 0 to 100 scale (0 no effect, 100 complete control)
Outline: as §1

[8] = system: wheat (Triticum aestivum); experiment: Test A postemergence, visual plant response rating; settings: for Wheat plant response rating (0 to 100 scale): 500 g ai/ha, postemergence, 0 is no effect, 100 is complete control; for Wheat plant response rating: Postemergence, 125 g ai/ha, 0 to 100 scale (0 no effect, 100 complete control)
Outline: as §1

[9] = system: galium (catchweed bedstraw, Galium aparine); experiment: Test A postemergence, visual plant response rating; settings: for Galium plant response rating (0 to 100 scale): 500 g ai/ha, postemergence, 0 is no effect, 100 is complete control; for Galium plant response rating: Postemergence, 125 g ai/ha, 0 to 100 scale (0 no effect, 100 complete control)
Outline: as §1

[10] = system: ducksalad (Heteranhera limosa); experiment: Test B flooded paddy test, visual plant response rating; settings: 250 g ai/ha, Flood, applied to paddy water, 2-leaf stage, evaluated after 13 to 15 days
Outline: (§2)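 At the two-leaf stage, seedlings received compound applied to paddy water flooded 3 cm above soil, a level sustained until assessment. Greenhouse incubation lasted 13 to 15 days before visual comparison with control plants.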

[11] = system: barnyardgrass (Echinochloa crus-galli); experiment: as above; settings: 250 g ai/ha, Flood, applied to paddy water, 2-leaf stage, evaluated after 13 to 15 days
Outline: as §2

[12] = system: sedge, umbrella (small-flower umbrella sedge, Cyperus difformis); experiment: as above; settings: 250 g ai/ha, Flood, applied to paddy water, 2-leaf stage, evaluated after 13 to 15 days
Outline: as §2

rice (Oryza sativa) = experiment: as above; settings: 250 g ai/ha, Flood, applied to paddy water, 2-leaf stage, evaluated after 13 to 15 days
Outline: as §2

[13] = system: barnyardgrass (Echinochloa crus-galli); experiment: Test A preemergence, visual plant response rating; settings: for Barnyardgrass plant response rating: 125 g ai/ha, preemergence, 0 to 100 scale, 0 no effect, 100 complete control; for Barnyardgrass plant response rating (0 to 100 scale): 500 g ai/ha Preemergence, approx. 10 days
Outline: as §1

[14] = system: pigweed (Amaranthus retroflexus); experiment: Test A preemergence, visual plant response rating; settings: for Pigweed plant response rating: 125 g ai/ha, preemergence, 0 to 100 scale, 0 no effect, 100 complete control; for Pigweed plant response rating (0 to 100 scale): 500 g ai/ha Preemergence, approx. 10 days
Outline: as §1

[15] = system: foxtail, giant (giant foxtail, Setaria faberii); experiment: Test A preemergence, visual plant response rating; settings: for Foxtail, Giant plant response rating: 125 g ai/ha, preemergence, 0 to 100 scale, 0 no effect, 100 complete control; for Foxtail, Giant plant response rating (0 to 100 scale): 500 g ai/ha Preemergence, approx. 10 days
Outline: as §1

[16] = system: ragweed (common ragweed, Ambrosia elatior); experiment: Test A preemergence, visual plant response rating; settings: for Ragweed plant response rating: 125 g ai/ha, preemergence, 0 to 100 scale, 0 no effect, 100 complete control; for Ragweed plant response rating (0 to 100 scale): 500 g ai/ha Preemergence, approx. 10 days
Outline: as §1

kochia (Kochia scoparia) [17] = experiment: Test A preemergence, visual plant response rating; settings: for Kochia plant response rating: 125 g ai/ha, preemergence, 0 to 100 scale, 0 no effect, 100 complete control; for Kochia plant response rating (0 to 100 scale): 500 g ai/ha Preemergence, approx. 10 days
Outline: as §1

[18] = system: Italian ryegrass (Lolium multiflorum); experiment: Test A preemergence, visual plant response rating; settings: for Ryegrass, Italian plant response rating: 125 g ai/ha, preemergence, 0 to 100 scale, 0 no effect, 100 complete control; for Ryegrass, Italian plant response rating (0 to 100 scale): 500 g ai/ha Preemergence, approx. 10 days
Outline: as §1

Compound | Barnyardgrass plant response rating (0 to 100 scale) [1] | Barnyardgrass plant response rating [1] | Blackgrass plant response rating (0 to 100 scale) [2] | Blackgrass plant response rating [2] | Pigweed plant response rating (0 to 100 scale) [3] | Pigweed plant response rating [3] | Corn plant response rating (0 to 100 scale) (corn (Zea mays)) | Corn plant response rating (corn (Zea mays)) | Foxtail, Giant plant response rating (0 to 100 scale) [4] | Foxtail, Giant plant response rating [4] | Ragweed plant response rating (0 to 100 scale) [5] | Ragweed plant response rating [5] | Kochia plant response rating (0 to 100 scale) (kochia (Kochia scoparia) [6]) | Kochia plant response rating (kochia (Kochia scoparia) [6]) | Ryegrass, Italian plant response rating (0 to 100 scale) [7] | Ryegrass, Italian plant response rating [7] | Wheat plant response rating (0 to 100 scale) [8] | Wheat plant response rating [8] | Galium plant response rating (0 to 100 scale) [9] | Galium plant response rating [9] | further results
C#CCON=C(c1c(O)c(C)nn(C)c1=O)c1cccc2ccccc12 (mixture of isomers) [Compound 118] | 90 | 90 | 100 | 90 | 100 | 100 | 70 | 30 | 90 | 80 | 90 | 90 | 100 | 70 | 100 | 90 | 90 | 40 | 100 | 90 | Plant response rating, Ducksalad (0 to 100 scale, 0 is no effect, 100 is complete control) [10]: 55; Plant response rating, Barnyardgrass (0 to 100 scale, 0 is no effect, 100 is complete control) [11]: 0; Plant response rating, Sedge, Umbrella (0 to 100 scale, 0 is no effect, 100 is complete control) [12]: 35; Plant response rating, Rice (0 to 100 scale, 0 is no effect, 100 is complete control) (rice (Oryza sativa)): 0; Barnyardgrass plant response rating [13]: 60; Barnyardgrass plant response rating (0 to 100 scale) [13]: 100; Pigweed plant response rating [14]: 100; Pigweed plant response rating (0 to 100 scale) [14]: 100; Foxtail, Giant plant response rating [15]: 80; Foxtail, Giant plant response rating (0 to 100 scale) [15]: 100; Ragweed plant response rating [16]: 80; Ragweed plant response rating (0 to 100 scale) [16]: 100; Kochia plant response rating (kochia (Kochia scoparia) [17]): 40; Kochia plant response rating (0 to 100 scale) (kochia (Kochia scoparia) [17]): 60; Ryegrass, Italian plant response rating [18]: 100; Ryegrass, Italian plant response rating (0 to 100 scale) [18]: 100
C#CCO/N=C(\c1c(O)c(C)nn(C)c1=O)c1cccc2ccccc12 [Compound 83, 5-hydroxy-2,6-dimethyl-4-[(Z)-[(2-propyn-1-yloxy)imino]-1-naphthalenylmethyl]-3(2H)-pyridazinone] | 80 | 60 | 100 | 90 | 90 | 80 | 40 | 20 | 80 | 70 | 100 | 90 | 90 | 80 | 100 | 90 | 60 | 40 | 100 | 90 | Plant response rating, Ducksalad (0 to 100 scale, 0 is no effect, 100 is complete control) [10]: 75; Plant response rating, Barnyardgrass (0 to 100 scale, 0 is no effect, 100 is complete control) [11]: 0; Plant response rating, Sedge, Umbrella (0 to 100 scale, 0 is no effect, 100 is complete control) [12]: 70; Plant response rating, Rice (0 to 100 scale, 0 is no effect, 100 is complete control) (rice (Oryza sativa)): 0; Barnyardgrass plant response rating [13]: 80; Barnyardgrass plant response rating (0 to 100 scale) [13]: 100; Pigweed plant response rating [14]: 100; Pigweed plant response rating (0 to 100 scale) [14]: 100; Foxtail, Giant plant response rating [15]: 90; Foxtail, Giant plant response rating (0 to 100 scale) [15]: 100; Ragweed plant response rating [16]: 100; Ragweed plant response rating (0 to 100 scale) [16]: 100; Kochia plant response rating (kochia (Kochia scoparia) [17]): 20; Kochia plant response rating (0 to 100 scale) (kochia (Kochia scoparia) [17]): 100; Ryegrass, Italian plant response rating [18]: 80; Ryegrass, Italian plant response rating (0 to 100 scale) [18]: 100
CON=C(c1c(O)c(C)nn(C)c1=O)c1cccc2sccc12 [Compound 58] | 50 | 20 | 90 | 80 | 90 | 70 | 0 | 0 | 80 | 40 | 100 | 50 | 70 | 60 | 90 | 80 | 80 | 40 | 90 | 80 | Plant response rating, Ducksalad (0 to 100 scale, 0 is no effect, 100 is complete control) [10]: 0; Plant response rating, Barnyardgrass (0 to 100 scale, 0 is no effect, 100 is complete control) [11]: 0; Plant response rating, Sedge, Umbrella (0 to 100 scale, 0 is no effect, 100 is complete control) [12]: 0; Plant response rating, Rice (0 to 100 scale, 0 is no effect, 100 is complete control) (rice (Oryza sativa)): 0; Barnyardgrass plant response rating [13]: 10; Barnyardgrass plant response rating (0 to 100 scale) [13]: 60; Pigweed plant response rating [14]: 10; Pigweed plant response rating (0 to 100 scale) [14]: 50; Foxtail, Giant plant response rating [15]: 60; Foxtail, Giant plant response rating (0 to 100 scale) [15]: 100; Ragweed plant response rating [16]: 60; Ragweed plant response rating (0 to 100 scale) [16]: 80; Kochia plant response rating (kochia (Kochia scoparia) [17]): 30; Kochia plant response rating (0 to 100 scale) (kochia (Kochia scoparia) [17]): 60; Ryegrass, Italian plant response rating [18]: 70; Ryegrass, Italian plant response rating (0 to 100 scale) [18]: 100
